The values that follow come from patent US20210393785A1, “Nucleic acid nanocarrier drug and preparation method thereof” (BAI YAO ZHI DA (BEIJING) NANOBIO TECHNOLOGY CO., LTD., priority 2018, published 2021).

Several values for one entry are separate records, joined by “and”; a condition that tells them apart may be missing. Equal values may be shown once.

Usually IC50 stands for the concentration needed to halve the response being measured. A higher IC50 goes with lower potency.

Series [1] concerns HepG2 cells. The experiment in a line: Cytotoxicity in HepG-2 cells (CellTiter-Glo). In kind it is cell-based, human. As to conditions: 96 hours. On the procedure: 1) Harvesting cells in a logarithmic growth phase, taking a small amount and staining with trypan blue for counting to ensure that the cell viability reaches more than 80%;
(§1) 3) planting 90 μL/well of cell suspension into the 96-well plate, herein the number of cells per well in the plate is 2000;
4) placing the planted cell plate in the incubator at 37 DEG C. and incubating overnight under conditions of 5% CO2 and 95% humidity;
(§2) 5) performing 3.16-fold gradient dilution on the compound at 9 concentration points;
6) taking out the cell culture plate, and adding 10 μL/well of 10× concentration drug working solution to the corresponding wells of the cell culture plate, herein three replicate holes are made for each concentration, and the final drug action concentration is shown in Table 56 below;
(§3) 7) placing the cell culture plate in the incubator and continuously incubating for 96 hours;
8) placing the CellTiter-Glo reagent and the drug treatment cell culture plate at the room temperature and equilibrating for 30 minutes;
9) adding 50 μL of the CellTiter-Glo reagent to each well;
10) shaking in the orbital shaker for 2 minutes so that the cells are adequately lysed;
11) placing the cell culture plate at the room temperature and equilibrating for 10 minutes, reading a chemiluminescence value by using EnVision; and
12) data processing and analysis.
GraphPad Prism 5.0 software is used to process data graphically. Nonlinear S-curve regression is used to fit the data to obtain a dosage-effect curve, and an IC50 value is calculated from this.
Cell survival rate (%)=(Lumdrug to be tested−Lummedium control)/(Lumcell control−Lummedium control)×100%.
Lumcell control-Lummedium control is set to 100%, and a LumMedium control value is set to 0%.

In series [2] the test system is LN-229 cells. The experiment in a line: Cytotoxicity in LN-229 cells. In kind it is cell-based. As to conditions: 96 hours.
Description: 2) adjusting the cell density to 2.22×10^4/mL with a growth medium;
6) taking out the cell culture plate, and adding 10 μL/well of 10× concentration drug working solution to the corresponding wells of the cell culture plate, herein three replicate holes are made for each concentration, and the final drug action concentration is shown in Table 46 below;
8) placing the CellTiter 96® AQueous One Solution reagent at the room temperature and thawing for 90 minutes or thawing in a water bath at 37 DEG C., and then equilibrating at the room temperature for 30 minutes;
9) adding 50 μL/well of the CellTiter 96® AQueous One Solution reagent to the cell culture plate; […]
11) using the microplate reader to read a OD490 value of each well in the cell plate; and […]
Series [3] deals with Hela cells. The experiment in a line: Cytotoxicity in Hela cells (CellTiter 96 AQueous One, OD490). In kind it is cell-based. As to conditions: Homo sapiens, 72 hours. As for the experimental part: (§4) 1) Harvesting cells in a logarithmic growth phase, taking a small amount and staining with trypan blue for counting to ensure that the cell viability reaches more than 98%;
3) planting 90 μL/well of cell suspension into the 96-well plate, herein the number of cells per well in the plate is 5000;
(§5) 4) placing the planted cell plate in the incubator at 37 DEG C. and incubating overnight;
as §2
6) taking out the cell culture plate, and adding 10 μL/well of 10× concentration drug working solution to the corresponding wells of the cell culture plate, herein three replicate holes are made for each concentration, and the final drug action concentration is shown in Table 66 below;
7) placing the cell culture plate in the incubator and continuously incubating for 72 hours;
8) placing the CellTiter 96® AQueous One Solution reagent at the room temperature and thawing for 90 minutes or thawing in a water bath at 37 DEG C., placing at the room temperature and equilibrating for 30 minutes; […]
(§6) 11) using a microplate reader to read a OD490 value of each well in the cell plate; and […]
(§7) GraphPad Prism 5.0 software is used to process data graphically. […] A calculation formula of the survival rate is as follows, the IC50 may be automatically calculated in GraphPad Prism 5.0. […]

The subject of series [4] is SGC-7901 cells. The experiment in a line: Cytotoxicity in SGC-7901 cells (CellTiter 96 AQueous One, OD490). In kind it is cell-based, human. As to conditions: 96 hours. On the procedure: as §4, §1, §5, §2
6) taking out the cell culture plate, and adding 10 μL/well of 10× concentration drug working solution to the corresponding wells of the cell culture plate, herein three replicate holes are made for each concentration, and the final drug action concentration is shown in Table 76 below;
as §3
8) placing the CellTiter 96® AQueous One Solution reagent at the room temperature and thawing for 90 minutes or thawing in a water bath at 37 DEG C., and placing at the room temperature and equilibrating for 30 minutes; […]
as §6, §7

In series [5] the test system is HepG2 cells. The experiment in a line: CCK8 toxicity of DNA nanoparticles and carrier drugs to HepG2. In kind it is cell-based. As to conditions: Homo sapiens, 72 hours. As for the experimental part:
A CCK8 method is used to detect the toxicity of DNA nanoparticles and carrier drugs to HepG2.
1. HepG2 cells in a logarithmic growth phase are taken, trypan blue is used for staining and the cell viability is counted to be 98.3%, plating is performed with 5000 Cell/well, a volume is 100 μL/well, 8 96-well plates are paved with 57 wells per plate, and it is incubated overnight at 37 DEG C.
2. A sample to be tested is diluted according to the following table and added: the original culture medium is removed and 100 μL of a culture medium of the sample to be tested with the different concentration is added, and there are 3 replicate wells in each group.
In the present embodiment, the loaded drug and the blank carrier are firstly prepared into 100 μM of stock solution by using the PBS, and then diluted with the complete culture medium (biotin-free DMEM). The original drug doxorubicin is firstly prepared into 100 μM of stock solution by the DMSO, and then diluted with the complete culture medium (biotin-free DMEM). The DMSO is directly diluted with the complete medium (biotin-free DMEM).
3. […]
6. A microplate reader is used to measure an absorbance at 450 nm.
7. Calculation: cell viability (%)=(OD experimental group-OD blank group)×100%/(OD control group-OD blank group), IC50 is calculated by Graph Pad Prism 5.0.

A short description of series [6]: Particle size measurement (DLS hydrodynamic size). In kind it is physicochemical. An excerpt:
1. Preparing a potential sample (conventional-sequence DNA self-assembly product D-7) and putting into a sample pool, opening a sample pool cover of an instrument, and placing the instrument; […]
4. clicking Ok to complete the settings, while a measurement dialog box appears, clicking Start to start, a DLS measurement value result of a hydrodynamic size of the self-assembly product D-7 is as follows: […]

Regarding `N.N.[Cl][Pt][Cl]` [Cisplatin], the results for the IC50 in series [1] and in series [2] were 3.99 µM and 12.5 µM, respectively. In series [1] (highest concentration of each sample (Table 56: 100 μM, DNAh-Bio-Cy5 4.9 μM)), the “Inhibition rate of cell proliferation at highest concentration itself” value was 99.36%.

Molecule `C[C@H]1[C@@H](O)O[C@@H]2O[C@@]3(C)CC[C@H]4[C@H](C)CC[C@@H]1[C@@]24OO3` [DHA (dihydroartemisinin), Dihydroartemisinin] came in with an IC50 in series [2] (Homo sapiens) of 20.2 µM.

As for `O=c1cc(-c2ccccc2)oc2ccccc12` [Flavone], in series [3], 12.6 µM corresponded to half-maximal inhibition (IC50).

For `O=C1[O][Pt]2([NH][C@@H]3CCCC[C@H]3[NH]2)[O]C1=O` [Oxaliplatin], in series [4], the IC50 came to 55.8 µM.

In series [1] (Homo sapiens), `CC[C@]1(O)C[C@H]2CN(CCc3c([nH]c4ccccc34)[C@@](C(=O)OC)(c3cc4c(cc3OC)N(C=O)[C@H]3[C@@](O)(C(=O)OC)[C@H](OC(C)=O)[C@]5(CC)C=CCN6CC[C@]43[C@@H]65)C2)C1` [Vincristine] came in with an IC50 of 1.68 µM. The inhibition at 100 µM in series [1] (Homo sapiens, highest concentration of each sample (Table 56: 100 μM, DNAh-Bio-Cy5 4.9 μM), read-out: Inhibition rate of cell proliferation at highest concentration itself) amounted to 70.7%.

In the case of `COc1cccc2c1C(=O)c1c(O)c3c(c(O)c1C2=O)C[C@@](O)(C(=O)CO)C[C@@H]3O[C@H]1C[C@H](N)[C@H](O)[C@H](C)O1` [doxorubicin], the IC50 in series [5] stood at 0.273 µM.

B1: D-7: conventional-sequence DNA nanoparticles, SEQ ID NO:117-119, no target head, thio modification (nucleic acid)
chain 1: CGCGCGCCCACGAGCGTTGCGGGCGCCGC
chain 2: GCGGCGCCCGCTTCGGCGGCAGGCGGC
chain 3: GCCGCCAGCCGCCCATAGCCGTGGGCGCGCG
modifications: DNA, backbone not given here; phosphorothioate (thio) modified DNA nanoparticle, further chemistry not fully specified
In the case of B1, in series [6] (result over the 3 detections), the “Particle size Z-Ave, Experiment result” value is 12.33 d · nm (±1.57 d · nm). Further, in series [6] (single detections 1-3, DLS hydrodynamic size), the “Particle size Z-Ave” value was 10.76 nm·days and 13.9 nm·days and 10.36 nm·days.
